{
  "source": "paper PMC3938390",
  "about": "(Biochemistry, 2013)",
  "key": {"CB1^WT": {"biological_target": "CB1^WT (Homo sapiens, UniProt P21554)", "sequence (P21554 whole entry)": "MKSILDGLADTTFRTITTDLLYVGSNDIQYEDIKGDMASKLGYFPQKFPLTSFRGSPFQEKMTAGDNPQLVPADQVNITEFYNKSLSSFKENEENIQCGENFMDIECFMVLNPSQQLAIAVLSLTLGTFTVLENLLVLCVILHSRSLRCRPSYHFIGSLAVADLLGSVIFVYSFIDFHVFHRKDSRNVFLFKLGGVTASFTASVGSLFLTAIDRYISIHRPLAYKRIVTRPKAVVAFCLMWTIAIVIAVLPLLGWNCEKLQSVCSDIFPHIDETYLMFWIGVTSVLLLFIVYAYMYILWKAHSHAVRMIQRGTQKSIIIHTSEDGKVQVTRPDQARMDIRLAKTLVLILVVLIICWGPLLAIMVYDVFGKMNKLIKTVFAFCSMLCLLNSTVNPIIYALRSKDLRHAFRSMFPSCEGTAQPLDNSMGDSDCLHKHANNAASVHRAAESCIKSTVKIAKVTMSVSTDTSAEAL", "settings": "[3H]CP55940 binding"}, "C98A,C107ACB1^WT": {"biological_target": "C98A,C107ACB1^WT (Homo sapiens, UniProt P21554, C107A/C98A)", "sequence (P21554 whole entry C98A/C107A)": "as the sequence (P21554 whole entry) above, with C98A, C107A counted along it", "settings": "[3H]CP55940 binding, N-terminal C98-C107 disulfide removed by mutation"}, "CB1": {"biological_target": "CB1 (Homo sapiens, UniProt P21554)", "sequence (P21554 whole entry)": "as the sequence (P21554 whole entry) above", "type": "binding"}, "[1]": {"settings": "CB1^WT treated with 10 mM DTT for 20 min prior to assay"}},
  "note": "Like-named read-outs stand apart in the source and are kept apart here.",
  "data": [
    {"smiles": "O=C(Nc1ccc(Cl)cc1)Nc1cccc(-c2cccc(N3CCCC3)n2)c1", "note": "[PSNCBAM-1, 1-(4-chlorophenyl)-3-[3-(6-pyrrolidin-1-ylpyridin-2-yl)phenyl]urea]", "values": [
      {"measurement": "allosteric cooperativity factor α for agonist binding", "setting": "CB1^WT; [1]", "value": "5.9 ± 0.3"},
      {"measurement": "allosteric cooperativity factor α for agonist binding", "setting": "CB1^WT; untreated CB1^WT", "value": "4.2 ± 0.2"}
    ]},
    {"smiles": "CCc1c(C(=O)NCCc2ccc(N3CCCCC3)cc2)[nH]c2ccc(Cl)cc12", "note": "[Org 27569]", "values": [
      {"measurement": "allosteric cooperativity factor α for agonist binding", "setting": "CB1^WT; [1]", "value": "6.8 ± 0.3"},
      {"measurement": "allosteric cooperativity factor α for agonist binding", "setting": "CB1^WT; untreated CB1^WT", "value": "4.9 ± 0.4"},
      {"measurement": "allosteric cooperativity factor α for agonist binding", "setting": "C98A,C107ACB1^WT", "value": "7.8 ± 0.5"}
    ]},
    {"smiles": "CCCCCCC(C)(C)c1ccc([C@@H]2C[C@H](O)CC[C@H]2CCCO)c(O)c1", "note": "[CP55940, (-)-cis-3-[2-hydroxy-4-(1,1-dimethyl-heptyl)phenyl]-trans-4-(3-hydroxypropyl)cyclohexanol]", "values": [
      {"measurement": "cooperativity factor α between orthosteric ligand and DTT", "setting": "CB1", "value": "0.69 ± 0.08"}
    ]}
  ]
}
